# Test: recombinant UMI read abundance after kanamycin selection (control-corrected) (log10(CPM+1)); higher = more efficient recombination; extreme values may be limits of the assay; sequences stand for … in AGTGCAGAGAAAATCGGCCAGTTTTCTCTGCCTGCAGTCCGCATGCCGTGGGACCCCTTGGGTTCTAACCTGTTGCCTAGATTTATGCAGCGGACTGCCTTTCTCCCAAAGTGATAAACCGG…AGGTTGGTTTCACT; site = the 11-nt donor
# Method in brief: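 Sequencing read counts were converted to CPM, averaged over two replicates and scaled by control-derived factors. Results are given as log10(CPM+1). The reads covered the donor–target junction of recombinant UMIs from a pooled Escherichia coli screen of donor and donor-binding-loop pairs for the IS621 bridge recombinase.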
# 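Note: IS621 bridge recombinase in Escherichia coli cells against a fixed T5 target plasmid.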
row,Sequence,recombinant UMI read abundance (log10)
1,TACTGGACATGGACCGGTTTTCCCGGTAATCCGTATTTGCT (site TACTCGACTAG),0.188
2,TACTGGACATGGACCGGTTTTCCCGGTAATCCGTATTTGCT (site TACTGGACTAG),2.01
3,TACTGGACATGGACCGGTTTTCCCGGTAATCCGTATTTGCT (site TACTTGACTAG),0.00209
4,TACTTGACATGGACCGGTTTTCCCGGTAATCCGTATTTGCC (site TACTTGACTAG),0.0078
5,TACTTGACATGGACCGGTTTTCCCGGTAATCCGTATTTGCC (site TACTTGACTCG),0.0284
6,TACTTGACATGGACCGGTTTTCCCGGTAATCCGTATTTGCC (site TACTTGACTGG),0
7,TACTTGACATGGACCGGTTTTCCCGGTAATCCGTATTTGCC (site TACTTGACTTG),0.00491
8,TACTTGACATGGACCGGTTTTCCCGGTAATCCGTATTTGTG (site TACTTGACTCA),0.00608
9,TACTTTCCATGGACCGGTTTTCCCGGTAATCCGTATTTGCG (site TACTTTCCTCG),1.29
10,TACTTTCCATGGACCGGTTTTCCCGGTAATCCGTATTTGCT (site TACTTTCCTAG),0.537
11,TACTTTGCATGGACCGGTTTTCCCGGTAATCCGTATTTGGA (site TACTTTGCTTC),0.0143
12,TAGAAATCATGGACCGGTTTTCCCGGTAATCCGTATTTGCG (site TAGAAATCTCG),2.05
13,TAGAAATCATGGACCGGTTTTCCCGGTAATCCGTATTTGCG (site TAGCAATCTCG),1.42
14,TAGAAATCATGGACCGGTTTTCCCGGTAATCCGTATTTGCG (site TAGGAATCTCG),1.44
15,TAGAAATCATGGACCGGTTTTCCCGGTAATCCGTATTTGCG (site TAGTAATCTCG),2.33
16,TAGAACACATGGACCGGTTTTCCCGGTAATCCGTATTTGTC (site TAGAACACTGA),2.34
17,TAGAAGACATGGACCGGTTTTCCCGGTAATCCGTATTTGCC (site TAGAAGACTGG),2.25
18,TAGAATACATGGACCGGTTTTCCCGGTAATCCGTATTTGTA (site TAGAATACTTA),1.55
19,TAGAATACATGGACCGGTTTTCCCGGTAATCCGTATTTGTA (site TAGAATACTTC),0.00357
20,TAGAATACATGGACCGGTTTTCCCGGTAATCCGTATTTGTA (site TAGAATACTTG),0.697
21,TAGAATACATGGACCGGTTTTCCCGGTAATCCGTATTTGTA (site TAGAATACTTT),0.208
22,TAGAATACATGGACCGGTTTTCCCGGTAATCCGTATTTGTG (site TAGAATACTCA),2.01
23,TAGACGACATGGACCGGTTTTCCCGGTAATCCGTATTTGAC (site TAGACGACTGT),2.6
24,TAGACGGCATGGACCGGTTTTCCCGGTAATCCGTATTTGGC (site TAGACGGCTGC),2.75
25,TAGACTCCATGGACCGGTTTTCCCGGTAATCCGTATTTGCA (site TAGACTCCTTG),1.54

row,Sequence,recombinant UMI read abundance (log10)
1,TAGCAATCATGGACCGGTTTTCCCGGTAATCCGTATTTGCG (site TAGAAATCTCG),0
2,TAGCAATCATGGACCGGTTTTCCCGGTAATCCGTATTTGCG (site TAGCAATCTCG),1.45
3,TAGCAATCATGGACCGGTTTTCCCGGTAATCCGTATTTGCG (site TAGGAATCTCG),0
4,TAGCAATCATGGACCGGTTTTCCCGGTAATCCGTATTTGCG (site TAGTAATCTCG),0.646
5,TAGCAGTCATGGACCGGTTTTCCCGGTAATCCGTATTTGTC (site TAGCAGTCTGA),2.39
6,TAGCCAGCATGGACCGGTTTTCCCGGTAATCCGTATTTGAA (site TAGCAAGCTTT),0.0207
7,TAGCCAGCATGGACCGGTTTTCCCGGTAATCCGTATTTGAA (site TAGCCAGCTTT),0.924
8,TAGCCAGCATGGACCGGTTTTCCCGGTAATCCGTATTTGAA (site TAGCGAGCTTT),0.0055
9,TAGCCAGCATGGACCGGTTTTCCCGGTAATCCGTATTTGAA (site TAGCTAGCTTT),0.00915
10,TAGCCTCCATGGACCGGTTTTCCCGGTAATCCGTATTTGGT (site TAGCCTACTAC),0.0161
11,TAGCCTCCATGGACCGGTTTTCCCGGTAATCCGTATTTGGT (site TAGCCTCCTAC),0.00993
12,TAGCCTCCATGGACCGGTTTTCCCGGTAATCCGTATTTGGT (site TAGCCTGCTAC),0.0298
13,TAGCCTCCATGGACCGGTTTTCCCGGTAATCCGTATTTGGT (site TAGCCTTCTAC),0
14,TAGCCTGCATGGACCGGTTTTCCCGGTAATCCGTATTTGGT (site TAGCCTACTAC),0.00931
15,TAGCCTGCATGGACCGGTTTTCCCGGTAATCCGTATTTGGT (site TAGCCTCCTAC),0.00394
16,TAGCCTGCATGGACCGGTTTTCCCGGTAATCCGTATTTGGT (site TAGCCTGCTAC),0.0393
17,TAGCCTGCATGGACCGGTTTTCCCGGTAATCCGTATTTGGT (site TAGCCTTCTAC),0.00419
18,TAGCCTTCATGGACCGGTTTTCCCGGTAATCCGTATTTGAT (site TAGCCTTCTAA),0.00922
19,TAGCCTTCATGGACCGGTTTTCCCGGTAATCCGTATTTGAT (site TAGCCTTCTAC),0.0113
20,TAGCCTTCATGGACCGGTTTTCCCGGTAATCCGTATTTGAT (site TAGCCTTCTAG),0
21,TAGCCTTCATGGACCGGTTTTCCCGGTAATCCGTATTTGAT (site TAGCCTTCTAT),0
22,TAGCCTTCATGGACCGGTTTTCCCGGTAATCCGTATTTGCT (site TAGCCTTCTAA),0.0333
23,TAGCCTTCATGGACCGGTTTTCCCGGTAATCCGTATTTGCT (site TAGCCTTCTAC),0.00853
24,TAGCCTTCATGGACCGGTTTTCCCGGTAATCCGTATTTGCT (site TAGCCTTCTAG),0
25,TAGCCTTCATGGACCGGTTTTCCCGGTAATCCGTATTTGCT (site TAGCCTTCTAT),0

row,Sequence,recombinant UMI read abundance (log10)
1,TAGCCTTCATGGACCGGTTTTCCCGGTAATCCGTATTTGGT (site AAGCCTTCTAC),0.00534
2,TAGCCTTCATGGACCGGTTTTCCCGGTAATCCGTATTTGGT (site CAGCCTTCTAC),0.00723
3,TAGCCTTCATGGACCGGTTTTCCCGGTAATCCGTATTTGGT (site GAGCCTTCTAC),0.0148
4,TAGCCTTCATGGACCGGTTTTCCCGGTAATCCGTATTTGGT (site TAACCTTCTAC),0
5,TAGCCTTCATGGACCGGTTTTCCCGGTAATCCGTATTTGGT (site TACCCTTCTAC),0.00592
6,TAGCCTTCATGGACCGGTTTTCCCGGTAATCCGTATTTGGT (site TAGACTTCTAC),0
7,TAGCCTTCATGGACCGGTTTTCCCGGTAATCCGTATTTGGT (site TAGCATTCTAC),0.0053
8,TAGCCTTCATGGACCGGTTTTCCCGGTAATCCGTATTTGGT (site TAGCCATCTAC),0.00583
9,TAGCCTTCATGGACCGGTTTTCCCGGTAATCCGTATTTGGT (site TAGCCCTCTAC),0.00791
10,TAGCCTTCATGGACCGGTTTTCCCGGTAATCCGTATTTGGT (site TAGCCGTCTAC),0.0151
11,TAGCCTTCATGGACCGGTTTTCCCGGTAATCCGTATTTGGT (site TAGCCTACTAC),0.0102
12,TAGCCTTCATGGACCGGTTTTCCCGGTAATCCGTATTTGGT (site TAGCCTCCTAC),0.00585
13,TAGCCTTCATGGACCGGTTTTCCCGGTAATCCGTATTTGGT (site TAGCCTGCTAC),0.0178
14,TAGCCTTCATGGACCGGTTTTCCCGGTAATCCGTATTTGGT (site TAGCCTTCTAA),0.0101
15,TAGCCTTCATGGACCGGTTTTCCCGGTAATCCGTATTTGGT (site TAGCCTTCTAC),0.00564
16,TAGCCTTCATGGACCGGTTTTCCCGGTAATCCGTATTTGGT (site TAGCCTTCTAG),0
17,TAGCCTTCATGGACCGGTTTTCCCGGTAATCCGTATTTGGT (site TAGCCTTCTAT),0.017
18,TAGCCTTCATGGACCGGTTTTCCCGGTAATCCGTATTTGGT (site TAGCCTTCTCC),0.0356
19,TAGCCTTCATGGACCGGTTTTCCCGGTAATCCGTATTTGGT (site TAGCCTTCTGC),0
20,TAGCCTTCATGGACCGGTTTTCCCGGTAATCCGTATTTGGT (site TAGCCTTCTTC),0.0121
21,TAGCCTTCATGGACCGGTTTTCCCGGTAATCCGTATTTGGT (site TAGCGTTCTAC),0
22,TAGCCTTCATGGACCGGTTTTCCCGGTAATCCGTATTTGGT (site TAGCTTTCTAC),0
23,TAGCCTTCATGGACCGGTTTTCCCGGTAATCCGTATTTGGT (site TAGGCTTCTAC),0.0025
24,TAGCCTTCATGGACCGGTTTTCCCGGTAATCCGTATTTGGT (site TAGTCTTCTAC),0
25,TAGCCTTCATGGACCGGTTTTCCCGGTAATCCGTATTTGGT (site TATCCTTCTAC),0.379

# Source: the supplement of paper PMC11208160
